Laboratory results reported in article PMC6515290, “Gypenoside LXXV Promotes Cutaneous Wound Healing In Vivo by Enhancing Connective Tissue Growth Factor Levels Via the Glucocorticoid Receptor Pathway” (Molecules, 2019).

Target: T1, glucocorticoid receptor (GR) (Homo sapiens, UniProt P04150)
T1 construct: gene NR3C1
T1 sequence (P04150 1-777): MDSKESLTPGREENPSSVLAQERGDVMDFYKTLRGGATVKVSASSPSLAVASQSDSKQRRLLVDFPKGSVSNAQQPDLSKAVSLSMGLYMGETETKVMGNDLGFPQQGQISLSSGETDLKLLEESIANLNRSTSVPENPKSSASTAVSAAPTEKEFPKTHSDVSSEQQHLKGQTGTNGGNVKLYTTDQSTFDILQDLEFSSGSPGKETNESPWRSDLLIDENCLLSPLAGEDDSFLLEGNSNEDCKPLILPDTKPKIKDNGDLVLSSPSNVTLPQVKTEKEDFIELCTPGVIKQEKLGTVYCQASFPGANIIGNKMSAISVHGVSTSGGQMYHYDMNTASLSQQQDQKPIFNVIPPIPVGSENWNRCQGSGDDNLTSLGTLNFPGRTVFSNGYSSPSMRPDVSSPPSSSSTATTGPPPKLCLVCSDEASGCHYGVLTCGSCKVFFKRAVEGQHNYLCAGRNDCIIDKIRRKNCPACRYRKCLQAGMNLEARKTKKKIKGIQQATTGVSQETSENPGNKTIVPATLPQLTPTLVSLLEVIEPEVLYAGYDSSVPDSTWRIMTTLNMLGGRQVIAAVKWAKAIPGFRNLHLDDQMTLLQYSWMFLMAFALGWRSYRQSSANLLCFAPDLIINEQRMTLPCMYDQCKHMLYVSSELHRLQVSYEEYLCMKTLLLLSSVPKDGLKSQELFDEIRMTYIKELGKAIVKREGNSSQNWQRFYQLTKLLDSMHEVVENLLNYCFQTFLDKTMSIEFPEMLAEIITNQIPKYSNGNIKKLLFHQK
Assay: PolarScreen GR competitor assay, fluorescence polarization displacement of Fluormone
Format: binding

With `CC(C)=CCC[C@](C)(O[C@@H]1O[C@H](CO[C@@H]2O[C@H](CO)[C@@H](O)[C@H](O)[C@H]2O)[C@@H](O)[C@H](O)[C@H]1O)[C@H]1CC[C@]2(C)[C@@H]1[C@H](O)C[C@@H]1[C@@]3(C)CC[C@H](O)C(C)(C)[C@@H]3CC[C@]12C` [G75, Gypenoside LXXV] as the molecule, how does the IC50 read?
The IC50 was 52.8 nM.
